# Experimental data as given in patent US10738056B2 (Aduro BioTech, Inc., priority 2017, dated 2020).
# What was measured:
# [1] = target: Human cGAS amino acids 155-522 (Homo sapiens (Human), UniProt Q8N884); test: cGAS biochemical activity assay (ATP remaining, Kinase-Glo Max luminescence); details: human cGAS 155-522, ATP remaining (Kinase-Glo Max); read-out: cGAS IC50
# [2] = tested on: cGAS/STING pathway in THP1 cells; test: THP1 cell-based cGAS/STING pathway activity assay (IRF-3-linked luciferase reporter); details: Homo sapiens, THP-1
# Summary of the method: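 THP1 cells carrying an IRF-3-driven luciferase reporter were read across a range of compound concentrations, and IC50 values were derived from these concentration responses; the assay upper limit was 100 μM.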
# Human cGAS amino acids 155-522, sequence (Q8N884 157-522): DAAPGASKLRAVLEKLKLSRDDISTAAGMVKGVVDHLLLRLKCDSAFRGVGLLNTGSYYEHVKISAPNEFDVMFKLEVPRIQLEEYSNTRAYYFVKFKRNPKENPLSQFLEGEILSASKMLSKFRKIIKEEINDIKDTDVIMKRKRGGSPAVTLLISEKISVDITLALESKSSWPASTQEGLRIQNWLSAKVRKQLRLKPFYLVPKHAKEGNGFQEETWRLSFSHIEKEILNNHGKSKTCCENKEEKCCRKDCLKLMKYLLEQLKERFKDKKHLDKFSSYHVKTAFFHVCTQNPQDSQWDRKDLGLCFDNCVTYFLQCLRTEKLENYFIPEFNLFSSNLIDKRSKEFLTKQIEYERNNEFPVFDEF
SMILES,IC50 [1] [µM],IC50 [2] [µM]
"Cc1nnc(-c2c(C)[nH]c3c(-c4ccccc4)c(C(F)(F)F)nn3c2=O)[nH]1 [Compound C1020, 5-methyl-6-(5-methyl-4H-1,2,4-triazol-3-yl)-3-phenyl-2-(trifluoromethyl)pyrazolo[1,5-a]pyrimidin-7(4H)-one]",20 to 250,> 100
"COc1cccc2c(-c3c(C)[nH]c4c(-c5ccccc5)c(C(F)(F)F)nn4c3=O)n[nH]c12 [Compound C1026, 6-(7-methoxy-1H-indazol-3-yl)-5-methyl-3-phenyl-2-(trifluoromethyl)pyrazolo[1,5-a]pyrimidin-7(4H)-one]",20 to 250,< 20
"Cc1[nH]c2c(-c3ccccc3)c(C(F)(F)F)nn2c(=O)c1-c1nc2c(OC(C)C)cccc2o1 [Compound C1039, 6-(4-isopropoxybenzo[d]oxazol-2-yl)-5-methyl-3-phenyl-2-(trifluoromethyl)pyrazolo[1,5-a]pyrimidin-7(4H)-one]",< 20,> 100
"Cc1[nH]c2c(-c3ccccc3)c(C(F)(F)F)nn2c(=O)c1-c1nc2c(Br)cccc2o1 [Compound C1040, 6-(4-bromobenzo[d]oxazol-2-yl)-5-methyl-3-phenyl-2-(trifluoromethyl)pyrazolo[1,5-a]pyrimidin-7(4H)-one]",< 20,< 20
"COCCOc1cccc2oc(-c3c(C)[nH]c4c(-c5ccccc5)c(C(F)(F)F)nn4c3=O)nc12 [Compound C1041, 6-(4-(2-methoxyethoxy)benzo[d]oxazol-2-yl)-5-methyl-3-phenyl-2-(trifluoromethyl)pyrazolo[1,5-a]pyrimidin-7(4H)-one]",< 20,< 20
"COc1cccc2oc(-c3c(C)[nH]c4c(-c5ccccc5)c(C)nn4c3=O)nc12 [Compound C1042, 6-(4-methoxybenzo[d]oxazol-2-yl)-2,5-dimethyl-3-phenylpyrazolo[1,5-a]pyrimidin-7(4H)-one]",< 20,< 20
"CCc1cccc2oc(-c3c(C)[nH]c4c(-c5ccccc5)c(C(F)(F)F)nn4c3=O)nc12 [Compound C1046, 6-(4-ethylbenzo[d]oxazol-2-yl)-5-methyl-3-phenyl-2-(trifluoromethyl)pyrazolo[1,5-a]pyrimidin-7(4H)-one]",< 20,< 20
"COC1CCCc2oc(-c3c(C)[nH]c4c(-c5ccccc5)c(C(F)(F)F)nn4c3=O)nc21 (centres unmarked) [Compound C1048, 6-(4-methoxy-4,5,6,7-tetrahydrobenzo[d]oxazol-2-yl)-5-methyl-3-phenyl-2-(trifluoromethyl)pyrazolo[1,5-a]pyrimidin-7(4H)-one]",< 20,20 to 100
"COc1cccc2oc(-c3c(C)[nH]c4c(-c5ccccc5)c(C(F)F)nn4c3=O)nc12 [Compound C1050, 2-(difluoromethyl)-6-(4-methoxybenzo[d]oxazol-2-yl)-5-methyl-3-phenylpyrazolo[1,5-a]pyrimidin-7(4H)-one]",< 20,< 20
"COc1cccc2oc(-c3c(C)[nH]c4c(-c5ccccc5)c(C#N)nn4c3=O)nc12 [Compound C1051, 6-(4-methoxybenzo[d]oxazol-2-yl)-5-methyl-7-oxo-3-phenyl-4,7-dihydropyrazolo[1,5-a]pyrimidine-2-carbonitrile]",< 20,20 to 100
"Cc1[nH]c2c(-c3ccccc3)c(C(F)(F)F)nn2c(=O)c1-c1nc2c(o1)CCCC2O (centres unmarked) [Compound C1052, 6-(4-hydroxy-4,5,6,7-tetrahydrobenzo[d]oxazol-2-yl)-5-methyl-3-phenyl-2-(trifluoromethyl)pyrazolo[1,5-a]pyrimidin-7(4H)-one]",< 20,20 to 100

# The remaining lines, values ahead:
IC50 [1] [µM],IC50 [2] [µM],SMILES
< 20,20 to 100,"Cc1[nH]c2c(-c3ccccc3)c(C(F)(F)F)nn2c(=O)c1-c1nc2ccccc2c(=O)[nH]1 [Compound C1019, 2-(5-methyl-7-oxo-3-phenyl-2-(trifluoromethyl)-4,7-dihydropyrazolo[1,5-a]pyrimidin-6-yl)quinazolin-4(3H)-one]"
< 20,20 to 100,"COc1cccc2nc(-c3c(C)[nH]c4c(-c5ccccc5)c(C(F)(F)F)nn4c3=O)oc12 [Compound C1022, 6-(7-methoxybenzo[d]oxazol-2-yl)-5-methyl-3-phenyl-2-(trifluoromethyl)pyrazolo[1,5-a]pyrimidin-7(4H)-one]"
< 20,> 100,"Cc1[nH]c2c(-c3ccccc3)c(C(F)(F)F)nn2c(=O)c1-c1nn(C(C)C)c(=O)o1 [Compound C1023, 3-isopropyl-5-(5-methyl-7-oxo-3-phenyl-2-(trifluoromethyl)-4,7-dihydropyrazolo[1,5-a]pyrimidin-6-yl)-1,3,4-oxadiazol-2(3H)-one]"
< 20,20 to 100,"COc1cccc2nc(-c3c(C)[nH]c4c(-c5ccccc5)c(C(F)(F)F)nn4c3=O)[nH]c(=O)c12 [Compound C1024, 5-methoxy-2-(5-methyl-7-oxo-3-phenyl-2-(trifluoromethyl)-4,7-dihydropyrazolo[1,5-a]pyrimidin-6-yl)quinazolin-4(3H)-one]"
< 20,> 100,"COc1cccc2c(=O)[nH]c(-c3c(C)[nH]c4c(-c5ccccc5)c(C(F)(F)F)nn4c3=O)nc12 [Compound C1025, 8-methoxy-2-(5-methyl-7-oxo-3-phenyl-2-(trifluoromethyl)-4,7-dihydropyrazolo[1,5-a]pyrimidin-6-yl)quinazolin-4(3H)-one]"
< 20,20 to 100,"Cc1[nH]c2c(-c3ccccc3)c(C(F)(F)F)nn2c(=O)c1-c1ncc(C2CCCOC2)o1 (centres unmarked) [Compound C1027, 5-methyl-3-phenyl-6-(5-(tetrahydro-2H-pyran-3-yl)oxazol-2-yl)-2-(trifluoromethyl)pyrazolo[1,5-a]pyrimidin-7(4H)-one]"
< 20,> 100,"Cc1[nH]c2c(-c3ccccc3)c(C(F)(F)F)nn2c(=O)c1-c1nc2ncccc2o1 [Compound C1030, 5-methyl-6-(oxazolo[4,5-b]pyridin-2-yl)-3-phenyl-2-(trifluoromethyl)pyrazolo[1,5-a]pyrimidin-7(4H)-one]"
< 20,20 to 100,"Cc1nn2c(=O)c(-c3nc4c(o3)CCCC4)c(C)[nH]c2c1-c1ccccc1 [Compound C1032, 2,5-dimethyl-3-phenyl-6-(4,5,6,7-tetrahydrobenzo[d]oxazol-2-yl)pyrazolo[1,5-a]pyrimidin-7(4H)-one]"
< 20,> 100,"Cc1[nH]c2c(-c3ccccc3)c(C(F)(F)F)nn2c(=O)c1-c1nc2c(o1)CCCC2=O [Compound C1033, 2-(5-methyl-7-oxo-3-phenyl-2-(trifluoromethyl)-4,7-dihydropyrazolo[1,5-a]pyrimidin-6-yl)-6,7-dihydrobenzo[d]oxazol-4(5H)-one]"
< 20,< 20,"COc1nccc2oc(-c3c(C)[nH]c4c(-c5ccccc5)c(C(F)(F)F)nn4c3=O)nc12 [Compound C1037, 6-(4-methoxyoxazolo[4,5-c]pyridin-2-yl)-5-methyl-3-phenyl-2-(trifluoromethyl)pyrazolo[1,5-a]pyrimidin-7(4H)-one]"
< 20,< 20,"CCOc1cccc2oc(-c3c(C)[nH]c4c(-c5ccccc5)c(C(F)(F)F)nn4c3=O)nc12 [Compound C1038, 6-(4-ethoxybenzo[d]oxazol-2-yl)-5-methyl-3-phenyl-2-(trifluoromethyl)pyrazolo[1,5-a]pyrimidin-7(4H)-one]"
